Data taken from publication PMC5515969, “Effects of 31 FDA approved small-molecule kinase inhibitors on isolated rat liver mitochondria” (Archives of Toxicology, 2016).
Where a name gives a salt, the structure may show the parent alone. Read-outs that look alike come from different tables or passages of the source. Marks after values point to notes of the source that are not given here.

Columns and labels:
[1] = system: RCC I; assay: RCC I activity in submitochondrial particles; format: biochemical, rat; parameters: key to RCC I at 10XCmax / RCC I at 100XCmax / RCC I at 50XCmax / RCC I at 30XCmax / RCC I at 20XCmax: activity relative to DMSO-treated controls (control set as 1 = 100%); conditions: 10XCmax; relative to DMSO treated samples
Procedure: (§1) KIs were incubated with submitochondrial particles (1 mg/ml) for 15 min and then RCC I–V activities measured. […] The activities of DMSO-treated samples (controls) were set as 1. […] The difference between the activity from rotenone-containing buffer and rotenone-absent buffer was considered as RCC I activity. […] For measuring RCC I/V and II activity, the changes in absorbance at 340 and 600 nm, respectively, were determined every 1 min for 6 min. For measuring RCC III and RCC IV, the changes in absorbance at 550 nm were measured every 10 s for 2 min.

[2] = target: T1, RCC II (Rattus norvegicus, UniProt P21913+Q641Z9+Q6PCT8+Q920L2); assay: RCC II activity in submitochondrial particles; format: biochemical; parameters: key: activity relative to DMSO-treated controls (control set as 1 = 100%); conditions: relative to DMSO treated samples
T1 construct: Submitochondrial particles were prepared by subjecting the intact mitochondria to three successive freeze–thaw cycles; from tissue; host or cells: rat liver mitochondria, used as submitochondrial particles
Procedure: as §1

[3] = system: isolated rat liver mitochondria; assay: Mitochondrial inner membrane potential (MMP), Rhodamine 123; format: biochemical; conditions: difference in signal between KI and DMSO treated samples at the end of experiments
Text: Fig. 3 KI effects on mitochondrial inner membrane potential (MMP). […] In a, c, data are means and standard derivations from three separate experiments. *p < 0.05 as compared to DMSO-treated samples at the end of experiments. In b, data are means of two independent experiments

[4] = cited from earlier work; for DILI potential (based on labeling): 1 = DILI positive, 0 = negative
[5] = system: isolated rat liver mitochondria; assay: Mitochondrial oxygen consumption (glutamate/malate or succinate driven, state 4 and state 3); format: biochemical; conditions: DMSO treated samples set as 1; on State 3 respiration driven by succinate at 10XCmax: key: 0 indicates that the drug had no effects (negative); on State 3 respiration driven by succinate at 1XCmax: key: 0 indicates that the drug had no effects (negative)
Procedure: Rats were anesthetized by an intraperitoneal injection of Nembutal and the liver perfused with PBS to remove the blood. The liver was then cut into small pieces and homogenized using a Dounce type homogenizer in the ice-cold isolation buffer (IB) containing 200 mM sucrose, 10 mM Tris-MOPS, 1 mM EGTA (pH 7.4). The sample was then centrifuged at 600g for 10 min. The supernatant was further centrifuged at 7500g for 10 min, and the pellets was washed once with the IB and centrifuged again at 7500g for 10 min to collect mitochondria. […] Before drug treatment, the protein concentration was adjusted to 1 mg/ml using appropriate buffer. […] Briefly, mitochondrial and cytosolic fractions from four different preparations using four rats were diluted using the Laemmli protein loading buffer and subject to SDS-PAGE with 4–20% gradient gels. The proteins were blotted to PVDF membranes and detected using antibodies against GAPDH, ATP5A, UQCRC2, SDHB, and NDUFB8.
The aliquoted stock solutions were kept for less than one month and each tube was used only once. The KIs were added to the mitochondria at 1:1000 dilutions. […] The Cmax data were from clinical trials which used FDA recommend dosages, route of administration, and duration. […] The final concentration of DMSO for drug treatment was always 0.1%, and control treatments were 0.1% DMSO.
Briefly, mitochondria were incubated with the KIs for 5 min, and then split evenly and loaded to the sample tubes of two Oxytherm systems (Hansatech Instruments Ltd), with one system used for measuring glutamate/malate driven respiration and the other succinate-driven respiration, both of which were defined as state 4 respiration. After 3 min, ADP was added to measure the maximal oxygen consumption rate, which was defined as state 3 respiration. […] The oxygen consumption rate of DMSO-treated samples (controls) was set as 1.

[6] = therapeutic maximal blood concentration, ref product labeling, cited from earlier work
[7] = parameters: method as in product labeling; conditions: ref product labeling, cited from earlier work; for Labeling for cardiotoxicity: BBW: black box warning, W&P: Warnings and Precautions
[8] = system: RCC V; assay: RCC V activity in submitochondrial particles; format: biochemical, rat; conditions: relative to DMSO treated samples; on RCC V at 5XCmax: key: 0 indicates that the drug had no effects (negative)
Procedure: as §1

[9] = system: isolated rat liver mitochondria; assay: Mitochondrial swelling (absorbance at 535 nm); format: biochemical; conditions: difference in signal between KI and DMSO treated samples at the end of experiments; on Swelling 5XCmax: key: 0 indicates that the drug had no effects (negative)
[10] = system: isolated rat liver mitochondria; conditions: positive control alamethicin treated samples
[11] = system: isolated rat liver mitochondria; assay: Mitochondrial ROS production (CM-H2DCFDA); conditions: DMSO treated samples set as 1

T1 sequence (Q920L2 35-656): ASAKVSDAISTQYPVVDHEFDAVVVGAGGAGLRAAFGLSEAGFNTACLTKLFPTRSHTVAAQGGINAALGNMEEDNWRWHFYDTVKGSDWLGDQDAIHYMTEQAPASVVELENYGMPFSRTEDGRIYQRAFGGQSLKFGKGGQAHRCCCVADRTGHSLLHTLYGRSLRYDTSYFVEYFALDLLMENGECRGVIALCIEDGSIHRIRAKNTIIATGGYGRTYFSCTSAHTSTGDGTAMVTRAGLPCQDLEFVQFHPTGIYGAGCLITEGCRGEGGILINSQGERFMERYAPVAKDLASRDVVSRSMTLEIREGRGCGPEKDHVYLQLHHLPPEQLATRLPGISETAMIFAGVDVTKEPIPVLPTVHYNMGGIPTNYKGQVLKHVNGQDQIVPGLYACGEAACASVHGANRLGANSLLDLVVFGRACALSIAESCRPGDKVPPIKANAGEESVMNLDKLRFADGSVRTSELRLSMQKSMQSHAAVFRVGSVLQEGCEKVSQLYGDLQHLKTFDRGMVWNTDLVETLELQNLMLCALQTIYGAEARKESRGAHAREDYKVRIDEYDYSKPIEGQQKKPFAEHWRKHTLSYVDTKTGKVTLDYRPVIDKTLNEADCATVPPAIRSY
T1 sequence (P21913 31-282): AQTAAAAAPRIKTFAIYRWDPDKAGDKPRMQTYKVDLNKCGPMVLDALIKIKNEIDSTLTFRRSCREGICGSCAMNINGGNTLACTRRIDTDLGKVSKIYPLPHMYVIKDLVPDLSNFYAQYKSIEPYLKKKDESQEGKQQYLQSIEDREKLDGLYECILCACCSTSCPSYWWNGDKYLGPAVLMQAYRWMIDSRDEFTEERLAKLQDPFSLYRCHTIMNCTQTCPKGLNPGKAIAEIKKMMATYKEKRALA
T1 sequence (Q641Z9 1-169): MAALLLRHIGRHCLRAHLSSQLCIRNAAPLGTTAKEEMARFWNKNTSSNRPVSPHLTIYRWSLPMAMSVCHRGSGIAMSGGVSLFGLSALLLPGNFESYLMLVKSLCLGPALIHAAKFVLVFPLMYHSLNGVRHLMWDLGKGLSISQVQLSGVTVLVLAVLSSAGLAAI
T1 sequence (Q6PCT8 57-159): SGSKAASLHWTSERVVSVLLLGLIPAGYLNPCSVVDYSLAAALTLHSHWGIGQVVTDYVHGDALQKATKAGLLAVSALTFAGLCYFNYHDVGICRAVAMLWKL

Row | SMILES | RCC I at 10XCmax [1] | RCC II at 1.0XCmax [2] | RCC II at 2.5XCmax [2] | RCC II at 5XCmax [2] | RCC II at 10XCmax [2] | MMP measured by Rhodamine 123 at 1XCmax [3] | MMP measured by Rhodamine 123 at 2.5XCmax [3] | MMP measured by Rhodamine 123 at 5XCmax [3] | MMP measured by Rhodamine 123 at 10XCmax [3] | DILI potential (based on labeling) ([4]; ref product labeling) | State 3 respiration driven by succinate at 1XCmax ([5]; 1XCmax) | State 4 respiration driven by succinate at 1XCmax ([5]; 1XCmax) | State 3 respiration driven by succinate at 2.5XCmax ([5]; 2.5XCmax) | State 4 respiration driven by succinate at 2.5XCmax ([5]; 2.5XCmax) | State 3 respiration driven by succinate at 5XCmax ([5]; 5XCmax) | State 4 respiration driven by succinate at 5XCmax ([5]; 5XCmax) | State 3 respiration driven by succinate at 10XCmax ([5]; 10XCmax) | State 4 respiration driven by succinate at 10XCmax ([5]; 10XCmax) | Labeling for cardiotoxicity [7] | Potential for cardiotoxicity (based on labeling) [7] | other results
1 | CS(=O)(=O)CCNCc1ccc(-c2ccc3ncnc(Nc4ccc(OCc5cccc(F)c5)c(Cl)c4)c3c2)o1 [lapatinib ditosylate monohydrate] | 0 | 0 | 0 | 0 | 0 | 0 | 0 | 0 | 0 | 1 | 0 | 0 | 0 | 0 | 0 | 0 | 0 | 0 | W&P: Decreased Left Ventricular Ejection Fraction; QT Prolongation | 1 | Labeling for DILI ([4]; in vivo): BBW: fatal DILI; Cmax [6]: 2430 ng/mL; RCC V at 5XCmax ([8]; 5XCmax): 0; Swelling 1XCmax [9]: 0; Swelling 2.5XCmax [9]: 0; Swelling 5XCmax ([9]; 5XCmax): 0; Swelling 10XCmax ([9]; 10XCmax): 0; Cytochrome c release 1XCmax [10]: 0; Cytochrome c release 2.5XCmax [10]: 0; Cytochrome c release 5XCmax [10]: 0; Cytochrome c release 10XCmax ([10]; 10XCmax): 7.91±2.25 percentage of the positive control group; ROS measured by CM-H2DCFDA at 1XCmax [11]: 0; ROS measured by CM-H2DCFDA at 2.5XCmax [11]: 0; ROS measured by CM-H2DCFDA at 5XCmax [11]: 0; ROS measured by CM-H2DCFDA at 10XCmax [11]: 0
2 | CNC(=O)c1cc(Oc2ccc(NC(=O)Nc3ccc(Cl)c(C(F)(F)F)c3)cc2)ccn1 [sorafenib tosylate] | 0 | 0 | 0 | 0 | 0 | 4037±631* | 4075±739* | 3781±744* | 3380±680* | 1 | 0 | 1.50±0.21 | 0.62±0.05 | 1.43±0.06 | 0.40±0.01 | 0 | 0 | 3.34±0.45 | W&P: Cardiac Ischemia and/or Infarction; QT Interval Prolongation | 1 | Labeling for DILI ([4]; BBW: black box warning, W&P: Warnings and Precautions, ref product labeling): W&P: fatal DILI; State 4 respiration driven by glutamate/malate at 1XCmax ([5]; 1XCmax): 2.55±0.27; State 3 respiration driven by glutamate/malate at 2.5XCmax ([5]; 2.5XCmax): 1.57±0.06; State 4 respiration driven by glutamate/malate at 2.5XCmax ([5]; 2.5XCmax): 4.92±0.09; State 4 respiration driven by glutamate/malate at 5XCmax ([5]; 5XCmax): 3.69±0.12; State 4 respiration driven by glutamate/malate at 10XCmax ([5]; 10XCmax): 5.00±1.92; Cmax ([6]; read-out: Cmax at µM): 4.3 µM; RCC V at 10XCmax ([8]; 10XCmax): 65.55±6.34; Swelling 1XCmax [9]: 0; Swelling 2.5XCmax [9]: 0.29±0.02; Cytochrome c release 1XCmax [10]: 0; Cytochrome c release 2.5XCmax [10]: 0; Cytochrome c release 5XCmax [10]: 12.12±5.17 percentage of the positive control group; ROS measured by CM-H2DCFDA at 1XCmax [11]: 0; ROS measured by CM-H2DCFDA at 2.5XCmax [11]: 0; ROS measured by CM-H2DCFDA at 5XCmax [11]: 0; ROS measured by CM-H2DCFDA at 10XCmax [11]: 0
